Activity calls are given as the source filed them. The rule behind the calls is not given here.
Tests used:
[1] = tested on: Aspergillus niger; assay: Inhibition of Aspergillus niger amyloglucosidase by competitive inhibition-based kinetic assay
[2] = tested on: Aspergillus niger; assay: Inhibition of Aspergillus niger amyloglucosidase at 7 uM by competitive inhibition-based kinetic assay
[3] = tested on: Vigna radiata var. radiata; assay: Inhibition of mung bean seedlings glucosidase 1
[4] = organism: Bos taurus; assay: Inhibition of bovine epididymis beta-N-acetylglucosaminidase B up to 1 mM
[5] = tested on: Vigna radiata var. radiata; assay: Inhibition of mung bean seedlings glucosidase 1 at 1 mM
[6] = tested on: Canavalia ensiformis; assay: Inhibition of jack bean alpha-mannosidase up to 1 mM
[7] = tested on: Prunus dulcis; assay: Inhibition of almond beta-glucosidase up to 1 mM
[8] = target: Sucrase-isomaltase, intestinal (Rattus norvegicus) (UniProt P23739); assay: Inhibition of Sprague-Dawley rat small intestine sucrase at 1 mM
[9] = target: T1, Beta-glucuronidase (Bos taurus) (UniProt A3KMY8); assay: Inhibition of bovine liver beta-glucuronidase up to 1 mM
T1 sequence (whole entry): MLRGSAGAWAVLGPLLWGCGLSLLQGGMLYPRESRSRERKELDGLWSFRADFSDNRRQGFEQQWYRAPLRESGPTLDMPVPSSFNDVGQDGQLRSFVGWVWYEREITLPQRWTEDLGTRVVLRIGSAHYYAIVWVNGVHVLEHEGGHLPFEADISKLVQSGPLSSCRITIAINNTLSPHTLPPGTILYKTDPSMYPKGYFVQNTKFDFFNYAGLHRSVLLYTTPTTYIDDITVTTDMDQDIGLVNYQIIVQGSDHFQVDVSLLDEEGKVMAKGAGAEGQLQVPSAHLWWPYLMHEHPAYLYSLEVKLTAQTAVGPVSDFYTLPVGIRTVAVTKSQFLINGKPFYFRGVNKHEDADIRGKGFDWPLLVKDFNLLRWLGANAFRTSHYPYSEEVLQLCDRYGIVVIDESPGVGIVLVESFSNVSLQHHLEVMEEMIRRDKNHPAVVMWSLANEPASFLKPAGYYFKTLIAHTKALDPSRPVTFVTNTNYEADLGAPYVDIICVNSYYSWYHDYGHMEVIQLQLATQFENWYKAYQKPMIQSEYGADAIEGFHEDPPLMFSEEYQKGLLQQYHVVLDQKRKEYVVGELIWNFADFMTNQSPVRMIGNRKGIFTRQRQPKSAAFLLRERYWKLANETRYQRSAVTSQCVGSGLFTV

[10] = organism: Bos taurus; assay: Inhibition of bovine liver beta-galactosidase at 1 mM
[11] = tested on: Aspergillus niger; assay: Inhibition of Aspergillus niger alpha-galactosidase up to 1 mM
[12] = tested on: Aspergillus niger; assay: Inhibition of Aspergillus niger alpha-mannosidase up to 1 mM
[13] = tested on: Aspergillus niger; assay: Inhibition of Aspergillus niger beta-xylosidase up to 1 mM
[14] = tested on: Aspergillus niger; assay: Inhibition of Aspergillus niger amyloglucosidase at 230 uM by competitive inhibition-based kinetic assay
[15] = organism: Bos taurus; assay: Inhibition of bovine kidney alpha-L-fucosidase up to 1 mM
[16] = tested on: Vigna radiata var. radiata; assay: Inhibition of mung bean seedlings glucosidase 2 up to 1 mM
[17] = organism: Bos taurus; assay: Inhibition of bovine liver beta-galactosidase
[18] = target: Sucrase-isomaltase, intestinal (Rattus norvegicus) (UniProt P23739); assay: Inhibition of Sprague-Dawley rat small intestine sucrase
[19] = tested on: Saccharomyces cerevisiae; assay: Inhibition of yeast alpha-glucosidase at 1 mM
[20] = tested on: Saccharomyces cerevisiae; assay: Inhibition of yeast alpha-glucosidase
[21] = tested on: Aspergillus niger; assay: Inhibition of Aspergillus niger amyloglucosidase at 20 uM by competitive inhibition-based kinetic assay

Chain of Sucrase-isomaltase, intestinal (Rattus norvegicus) (P23739 1-1013 limits assumed): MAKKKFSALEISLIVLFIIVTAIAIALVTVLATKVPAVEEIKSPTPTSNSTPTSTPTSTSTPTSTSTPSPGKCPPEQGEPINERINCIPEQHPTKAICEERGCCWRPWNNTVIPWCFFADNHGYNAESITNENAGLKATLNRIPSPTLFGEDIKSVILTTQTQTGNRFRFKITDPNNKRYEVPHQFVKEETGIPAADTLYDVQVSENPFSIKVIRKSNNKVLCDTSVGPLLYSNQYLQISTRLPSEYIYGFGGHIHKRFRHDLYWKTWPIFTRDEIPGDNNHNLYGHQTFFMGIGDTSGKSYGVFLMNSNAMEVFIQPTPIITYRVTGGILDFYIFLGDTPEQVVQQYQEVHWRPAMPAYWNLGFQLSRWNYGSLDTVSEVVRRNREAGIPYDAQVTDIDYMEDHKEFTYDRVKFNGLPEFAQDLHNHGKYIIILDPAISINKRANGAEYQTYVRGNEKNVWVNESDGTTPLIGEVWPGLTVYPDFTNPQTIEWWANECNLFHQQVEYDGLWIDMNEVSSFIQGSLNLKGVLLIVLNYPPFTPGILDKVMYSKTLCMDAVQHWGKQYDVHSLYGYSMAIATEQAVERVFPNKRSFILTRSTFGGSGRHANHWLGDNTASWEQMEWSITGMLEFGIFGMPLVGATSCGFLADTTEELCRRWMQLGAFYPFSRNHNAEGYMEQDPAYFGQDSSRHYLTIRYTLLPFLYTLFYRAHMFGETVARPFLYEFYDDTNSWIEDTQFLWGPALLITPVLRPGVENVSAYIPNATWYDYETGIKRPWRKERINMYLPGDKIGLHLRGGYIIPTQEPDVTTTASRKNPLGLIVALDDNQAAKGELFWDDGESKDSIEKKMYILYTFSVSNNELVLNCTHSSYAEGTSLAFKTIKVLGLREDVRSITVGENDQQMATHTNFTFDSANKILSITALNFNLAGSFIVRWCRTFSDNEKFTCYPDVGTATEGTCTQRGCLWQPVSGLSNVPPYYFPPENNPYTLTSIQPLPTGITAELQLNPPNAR
Chain of Sucrase-isomaltase, intestinal (Rattus norvegicus) (P23739 1014-1841 limits assumed): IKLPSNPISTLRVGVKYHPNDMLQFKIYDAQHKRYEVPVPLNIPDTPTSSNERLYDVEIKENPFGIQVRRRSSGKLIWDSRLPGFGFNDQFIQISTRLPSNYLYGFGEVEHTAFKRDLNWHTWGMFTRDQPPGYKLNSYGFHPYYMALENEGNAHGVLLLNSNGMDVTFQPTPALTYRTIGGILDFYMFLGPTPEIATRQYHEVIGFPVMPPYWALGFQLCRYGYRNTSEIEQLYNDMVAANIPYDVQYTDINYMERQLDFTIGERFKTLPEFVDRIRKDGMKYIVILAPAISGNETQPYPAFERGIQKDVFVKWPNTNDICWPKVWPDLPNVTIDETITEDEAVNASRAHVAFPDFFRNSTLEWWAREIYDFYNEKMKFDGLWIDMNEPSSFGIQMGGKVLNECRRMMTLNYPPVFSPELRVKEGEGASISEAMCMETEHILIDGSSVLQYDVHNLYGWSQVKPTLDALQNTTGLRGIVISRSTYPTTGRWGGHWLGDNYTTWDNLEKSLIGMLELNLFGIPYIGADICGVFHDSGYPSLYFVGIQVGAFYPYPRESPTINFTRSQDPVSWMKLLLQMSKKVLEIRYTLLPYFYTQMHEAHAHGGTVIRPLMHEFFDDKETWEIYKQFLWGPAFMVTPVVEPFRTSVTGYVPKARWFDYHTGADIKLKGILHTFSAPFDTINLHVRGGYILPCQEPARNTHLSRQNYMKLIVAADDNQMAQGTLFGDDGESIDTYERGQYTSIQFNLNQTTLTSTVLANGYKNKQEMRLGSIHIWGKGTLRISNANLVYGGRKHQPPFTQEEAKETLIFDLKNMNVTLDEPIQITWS

O[C@H]1[C@H](O)[C@@H](O)CN2CC[C@H](O)[C@H]12
Activity [1]: Active
inhibition [2]: 50%

O[C@H]1C[C@H](O)[C@H]2[C@@H](O)CCN2C1
Activity [3]: Active
Activity [4]: inactive
inhibition [5]: 35%
Activity [6]: inactive
Activity [7]: inactive
inhibition [8]: 30%
Activity [9]: inactive
inhibition [10]: 20%
Activity [11]: inactive
Activity [1]: Active
Activity [12]: inactive
Activity [13]: inactive
inhibition [14]: 50%
Activity [15]: inactive
Activity [16]: inactive
Activity [17]: Active
Activity [18]: Active
inhibition [19]: 50%
Activity [20]: Active

O[C@H]1[C@H](O)[C@H](O)CN2CC[C@H](O)[C@H]12
Activity [1]: Active
inhibition [21]: 50%

Reference: ChEMBL document CHEMBL1151152, “7-deoxy-6-epi-castanospermine, a trihydroxyindolizidine alkaloid glycosidase inhibitor from Castanospermum australe” (J Nat Prod, 1990)
